# Data reported in patent US20040253728A1, “New method” (priority 2000, published 2004).
# *1 amine or outer side, *2 acyl side, *3 side chain or, on linkers, in order; H or OH if unused. Where a SMILES comes first, the peptide text is derived from it. Bridges are numbered along the chain shown (N, C = ends). Roman numbers before positions name the chains, in order. [ ]: non-standard residue; d: D form. Actinocin(9to1) = Cc1c2oc3c(C)ccc(C(=O)[*:1])c3nc-2c(C(=O)[*:2])c(N)c1=O; NMeV = CN[C@H](C(=O)O)C(C)C; Sar = CNCC(=O)O
# B1: TFB2M: recombinant human mitochondrial transcription factor B2, homologue of yeast Mtf1, expressed in a baculovirus system (protein)
# chain: AGRFCILGSEAATRKHLPARNHCGLSDSSPQLWPEPDFRNPPRKASKASLDFKRYVTDRRLAETLAQIYLGKPSRPPHLLLECNPGPGILTQALLEAGAKVVALESDKTFIPHLESLGKNLDGKLRVIHCDFFKLDPRSGGVIKPPAMSSRGLFKNLGIEAVPWTADIPLKVVGMFPSRGEKRALWKLAYDLYSCTSIYKFGRIEVNMFIGEKEFQKLMADPGNPDLYHVLSVIWQLACEIKVLHMEPWSSFDIYTRKGPLENPKRRELLDQLQQKLYLIQMIPRQNLFTKNLTPMNYNIFFHLLKHCFGRRSATVIDHLRSLTPLDARDILMQIGKQEDEKVVNMHPQDFKTLFETIERSKDCAYKWLYDETLEDR
# Key:
# [1] = system: NADH dehydrogenase subunit 4 (ND4); conditions: cited from earlier work
# [2] = system: ρ^0 (143B/206) and ρ^+ (143B) osteosarcoma cells; experiment: Flow cytometric analysis of apoptotic cells (annexin V / propidium iodide); format: cell-based, human; conditions: for apoptosis induced in ρ^0 cells compared with ρ^+ cells (early apoptotic cells, annexin V positive/propidium iodide negative): 16 hours, 0.5 μM staurosporine, 100 ng/ml anti-Fas antibody or 20 ng/ml TNFα plus 100 ng/ml actinomycin D; for proapoptotic effect on ρ^0 or ρ^+ cells: agent alone
# Procedure: (§1) A human osteosarcoma-derived cell line, 143B, containing mtDNA (ρ^+), and its mtDNA-less derivative, 143B/206 (ρ^0), were maintained in Dulbecco's Modified Eagle Medium (DMEM)-high glucose ([…]; GibcoBRL, Life Technologies AB, Sweden) containing 10% fetal bovine serum, and 100 IU/ml penicillin-streptomycin (GibcoBRL, Life Technologies AB, Sweden). The 143B/206 ρ^0 cells were additionally supplemented with 1 mM sodium pyruvate (GibcoBRL, Life Technologies AB, Sweden) and 50 μg/ml uridine (Sigma-Aldrich AB, Sweden) as described [King et al, Science 246:500-503 (1989)]. Cells were grown to sub-confluence.
# We stained the cells with annexin V and propidium iodide using the Vybrant apoptosis assay kit 2 (Molecular Probes, Leiden, The Netherlands). Flow cytometric analyses were performed on a Beckton Dickinson flow cytometer (FACScan) and the results were analyzed by using the Cell Quest program (Beckton Dickinson).
# [3] = system: ρ^0 (143B/206) and ρ^+ (143B) osteosarcoma cells; experiment: Measurement of caspase 3 activity; format: cell-based, human; conditions: 16 hours; ρ^0 and ρ^+ cells; compared to untreated cells
# Procedure: as §1
# Caspase 3 activity was measured by the caspase 3 assay kit (Pharmingen, CA, USA). Briefly, a tetrapeptide labeled with the fluorochrome 7-amino-4-methylcoumarin (AMC) was used as a substrate to identify and quantitate caspase 3 activity. AMC is released from the substrate upon cleavage by caspase-3. Free AMC is quantified in cell lysates by ultraviolet (UV) using an excitation wavelength of 365 nm and an emission wavelength of 460 nm. […] Caspase 3 activity was measured on ρ^0 and ρ^+ cells incubated with 0.5 μM staurosporin (n=3), 100 ng/ml human anti-Fas antibody plus 100 ng/ml actinomycin D (n=3), and 20 ng/ml human recombinant tumour necrosis factor α plus 100 ng/ml actinomycin D (n=3) for 16 hours.
# [4] = target: T1, human mtDNA light strand promoter (LSP) transcription (Homo sapiens, UniProt O00411+Q00059); experiment: In vitro run off transcription assay with recombinant mtRNAP, TFAM, TFB1M/TFB2M; format: biochemical; conditions: TFAM (2.5 pmol), mtRNAP/TFB1M (400 fmol) or mtRNAP/TFB2M (400 fmol)
# T1 construct: 10xHis (N); 6xHis (C); made in house; host or cells: Sf9 insect cells, recombinant baculovirus (pBacPAK9)
# Source text: Recombinant human mitochondrial RNA polymerase (mtRNAP), TFAM, TFB1M, and TFB2M were expressed in a baculovirus system and purified to homogeneity. The activity of these proteins was studied in vitro by run off transcription assays. The template used was a human mtDNA fragment containing the light strand promoter (LSP) followed by a 200 base pairs long stretch of double-stranded DNA. Neither, mtRNAP, TFAM, TFB1M nor TFB2M did alone initiate transcription from the mtDNA promoter. […] However, specific transcription initiation from LSP was obtained by combining either mtRNAP, TFAM and TFB1M or mtRNAP, TFAM and TFB2M. On the basis of these experiments we conclude that both TFB1M and TFB2M are functional homologues of the previously identified Saccharomyces cerevisiae protein Mtf1.
# To investigate the promoter specificity of the transcription reaction, we added a double-stranded oligonucleotide containing only the LSP sequence in a 100-fold surplus to the template DNA. […]
# DNA fragments corresponding to base pairs 1-741 (LSP/HSP), 1-477 (LSP) or 499-741 (HSP) of human mtDNA [Anderson et al., Nature 290:457 (1981)] were cloned into pUC18. […] The pellets were dissolved in 10 μl of gel loading buffer (98% formamide, 10 mM EDTA pH 8.0, 0.025% xylene cyanol FF, 0.025% bromophenol blue), heated at 95° C. for 5 min, and analyzed on a 5% denaturing polyacrylamide gel in 1×TBE. […]
# T1 sequence (O00411 42-1230): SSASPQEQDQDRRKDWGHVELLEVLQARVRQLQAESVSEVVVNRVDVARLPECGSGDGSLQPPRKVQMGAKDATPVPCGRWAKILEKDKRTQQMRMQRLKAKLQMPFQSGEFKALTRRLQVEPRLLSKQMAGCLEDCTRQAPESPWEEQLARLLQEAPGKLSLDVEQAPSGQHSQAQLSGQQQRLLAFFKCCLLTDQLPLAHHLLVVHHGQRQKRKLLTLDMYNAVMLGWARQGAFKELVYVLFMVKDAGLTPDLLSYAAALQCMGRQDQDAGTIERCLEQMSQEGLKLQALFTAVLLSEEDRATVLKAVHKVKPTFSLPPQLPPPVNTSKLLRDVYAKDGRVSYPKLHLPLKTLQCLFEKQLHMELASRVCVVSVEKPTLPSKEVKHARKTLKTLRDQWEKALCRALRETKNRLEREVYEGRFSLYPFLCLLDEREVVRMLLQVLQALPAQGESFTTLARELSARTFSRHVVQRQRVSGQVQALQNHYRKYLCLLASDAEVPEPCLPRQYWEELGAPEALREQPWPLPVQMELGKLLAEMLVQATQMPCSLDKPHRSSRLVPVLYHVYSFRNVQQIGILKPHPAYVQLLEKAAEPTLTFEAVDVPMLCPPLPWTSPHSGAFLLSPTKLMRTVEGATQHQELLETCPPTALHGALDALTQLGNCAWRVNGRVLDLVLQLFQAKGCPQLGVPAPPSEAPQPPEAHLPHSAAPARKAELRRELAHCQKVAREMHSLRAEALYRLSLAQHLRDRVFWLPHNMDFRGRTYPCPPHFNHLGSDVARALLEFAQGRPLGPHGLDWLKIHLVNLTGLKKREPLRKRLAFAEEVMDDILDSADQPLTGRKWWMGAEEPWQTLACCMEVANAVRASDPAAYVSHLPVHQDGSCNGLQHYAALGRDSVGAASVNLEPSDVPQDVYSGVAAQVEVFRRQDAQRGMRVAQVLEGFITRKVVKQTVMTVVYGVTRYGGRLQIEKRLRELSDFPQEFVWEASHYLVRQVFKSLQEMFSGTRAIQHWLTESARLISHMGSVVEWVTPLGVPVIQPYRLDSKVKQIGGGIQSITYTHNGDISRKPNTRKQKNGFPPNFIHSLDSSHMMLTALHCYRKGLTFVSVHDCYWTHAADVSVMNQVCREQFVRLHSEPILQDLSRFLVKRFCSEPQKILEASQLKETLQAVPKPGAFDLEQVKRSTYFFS
# T1 sequence (Q00059 43-246): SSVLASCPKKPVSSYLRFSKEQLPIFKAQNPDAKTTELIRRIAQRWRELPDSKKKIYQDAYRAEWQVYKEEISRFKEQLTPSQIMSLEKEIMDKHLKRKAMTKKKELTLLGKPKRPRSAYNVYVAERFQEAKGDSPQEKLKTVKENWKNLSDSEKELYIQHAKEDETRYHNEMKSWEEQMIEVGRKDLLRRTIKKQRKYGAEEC
molecule,measurement,setting,value
Oligomycine,cell death in the cell population,[1],increase cell death
same,differentiation in the surviving population,[1],induce differentiation
"CN[C@@H]1C[C@H]2O[C@@](C)([C@@H]1OC)n1c3ccccc3c3c4c(c5c6ccccc6n2c5c31)C(=O)NC4 [STP, staurosporine]","apoptosis induced in ρ^0 cells compared with ρ^+ cells (early apoptotic cells, annexin V positive/propidium iodide negative)",[2],more STP-induced apoptosis in cells with mtDNA (ρ^+ cells) than in their mtDNA-less derivatives
same,induction of caspase 3 activity,[3],significant induction of caspase 3 activity in both ρ^0 and ρ^+ cells
C=C(C)[C@H]1Cc2c(ccc3c2O[C@@H]2COc4cc(OC)c(OC)cc4[C@@H]2C3=O)O1 [Rotenone],cell death in the cell population,[1],increase cell death
same,differentiation in the surviving population,[1],induce differentiation
Antimycin A,cell death in the cell population,[1],increase cell death
same,differentiation in the surviving population,[1],induce differentiation
"Cc1c2oc3c(C)ccc(C(=O)N[C@@H]4C(=O)N[C@H](C(C)C)C(=O)N5CCC[C@H]5C(=O)N(C)CC(=O)N(C)[C@@H](C(C)C)C(=O)O[C@@H]4C)c3nc-2c(C(=O)N[C@@H]2C(=O)N[C@H](C(C)C)C(=O)N3CCC[C@H]3C(=O)N(C)CC(=O)N(C)[C@@H](C(C)C)C(=O)O[C@@H]2C)c(N)c1=O [actinomycin D] (I: T[dV]P[Sar][NMeV] / II: T[dV]P[Sar][NMeV]; ester I:1-I:C, II:1-II:C; linker I:N-II:N via Actinocin(9to1))","apoptosis induced in ρ^0 cells compared with ρ^+ cells (early apoptotic cells, annexin V positive/propidium iodide negative)",[2],no significant differences in the fraction of apoptotic cells
same,proapoptotic effect on ρ^0 or ρ^+ cells,[2],proapoptotic effect on both ρ^0 and ρ^+ cells
TNFα,proapoptotic effect on ρ^0 or ρ^+ cells,[2],no proapoptotic effect
B1,transcriptional activation compared with TFB1M,[4],at least one order of magnitude greater
